In ChEMBL document CHEMBL3137667, “[Drug-induced liver injury; fourteenth updated edition of the bibliographic database of liver injuries and related drugs]” (Gastroenterol Clin Biol, 2004):

Tests used:
[1] = human
[2] = human; remark: listed apart in the source
[3] = human; remark: listed apart in the source
[4] = Highest frequency of acute liver toxicity observed during clinical trials, expressed as a percentage. [column '% AIGUE' in source]; conditions: human
[5] = Highest frequency of moderate liver toxicity observed during clinical trials, expressed as a percentage. [column '% BIOL' in source]; conditions: human
[6] = human; remark: listed apart in the source
[7] = human, serum, 4383 h
[8] = human; remark: listed apart in the source
[9] = Times to onset, minimal and maximal, observed in the indexed observations. [column 'DELAI' in source]; conditions: human
[10] = human; remark: listed apart in the source
[11] = human; remark: listed apart in the source
[12] = human; remark: listed apart in the source
[13] = human, serum
[14] = human, serum; remark: listed apart in the source
[15] = human; remark: listed apart in the source
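For Hepatotoxicity (association with vascular disease) in this document: count of indexed literature references reporting vascular liver injury in humans, e.g. peliosis hepatitis, hepatic veno-occlusive disease or Budd-Chiari syndrome.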
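For Hepatotoxicity (benign tumour) in this document: value is a count of indexed literature references citing a benign tumour confirmed by histopathology.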
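For Hepatotoxicity (choleostasis) in this document: human cholestatic liver injury, shown by histopathology or by peak ALT or AST elevation over alkaline phosphatase ratio below 2, value counts indexed literature reports.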
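For Hepatotoxicity (chronic liver disease) in this document: chronic liver injury confirmed by histopathology or persistently raised serum aminotransferase activity beyond 6 months, value given as the count of indexed literature references.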
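For Hepatotoxicity (cirrhosis) in this document: value is a count of indexed literature references reporting cirrhosis confirmed by histopathology.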
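For Hepatotoxicity (cytolytic) in this document: human cytolytic liver injury, shown by histopathology or by a ratio above 5 of peak ALT or AST elevation to alkaline phosphatase elevation, value counts indexed references.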
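For Hepatotoxicity (granulomatous hepatitis) in this document: value is a count of indexed literature references reporting granulomatous liver disease confirmed by histopathology.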
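For Hepatotoxicity (malignant tumour) in this document: malignant tumour confirmed by histopathology, value gives the count of indexed literature references reporting it.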
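For Hepatotoxicity (severe hepatitis) in this document: human clinical data: severe hepatitis, meaning potentially life-threatening liver failure or clinically observed cases, the value counts how many indexed literature references report it.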
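For Hepatotoxicity (steatosis) in this document: steatosis confirmed by histopathology, value is the count of indexed references.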

SMILES | Hepatotoxicity (severe hepatitis) ([1]; Liver) | Hepatotoxicity (malignant tumour) [3] | Hepatotoxicity (acute) ([4]; Liver) | Hepatotoxicity (moderate) ([5]; Liver) | Hepatotoxicity (chronic liver disease) [7] | Hepatotoxicity (association with vascular disease) [8] | Hepatotoxicity (time to onset) [9] | Hepatotoxicity (cirrhosis) [10] | Hepatotoxicity (benign tumour) [11] | Hepatotoxicity (acute) [13] | Hepatotoxicity (moderate) [14] | Hepatotoxicity (steatosis) [15] | Hepatotoxicity (choleostasis) [2] | Hepatotoxicity (cytolytic) [6] | Hepatotoxicity (granulomatous hepatitis) [12] | Hepatotoxicity (severe hepatitis) [1] | Hepatotoxicity (acute) [4] | Hepatotoxicity (moderate) [5] | other results
CO[C@@]1(NC(=O)CSC[C@@H](N)C(=O)O)C(=O)N2C(C(=O)O)=C(CSc3nnnn3C)CS[C@@H]21 [CEFMINOX] | 0 | 0 | 0.1% | 16.7% | 0 | 0 | 9 days | 0 | 0 | 2 | 12 | 0 |  |  |  |  |  |  | Hepatotoxicity (choleostasis) ([2]; Liver): 0; Hepatotoxicity (cytolytic) ([6]; Liver): 0; Hepatotoxicity (granulomatous hepatitis) ([12]; Liver): 0
O=C1C(CC[S+]([O-])c2ccccc2)C(=O)N(c2ccccc2)N1c1ccccc1 (stereo not given) [SULFINPYRAZONE] | 0 | 0 | 0% | 0% | 0 | 0 | 10 days | 0 | 0 | 1 | 0 | 0 | 1 | 0 | 0 |  |  |  | 
O=[N+]([O-])c1cc(Cl)cc(-c2cc(Cl)cc([N+](=O)[O-])c2O)c1O [NICLOFOLAN] |  | 0 |  |  | 0 | 0 | 1 week | 0 | 0 | 1 | 0 | 0 | 1 | 0 | 0 | 0 | 0% | 0% | 
CCN(CC)CCN1C(=O)CN=C(c2ccccc2F)c2cc(Cl)ccc21 [FLURAZEPAM] |  | 0 |  |  | 0 | 0 | 2 weeks - 6 months | 0 | 0 | 3 | 0 | 1 | 3 | 0 | 0 | 0 | 0% | 0% | 
O=C(c1ccccc1)c1ccc2n1CCC2C(=O)O (stereo not given) [KETOROLAC] |  | 0 |  |  | 0 | 0 | 1 day - 10 days | 0 | 0 | 1 | 1 | 0 | 1 | 1 | 0 | 0 | 1% | 32% | 
Clc1ccc2c(c1)C(N1CCNCC1)=Nc1ccccc1O2 [AMOXAPINE] |  | 0 |  |  | 0 | 0 | 4 days - 18 days | 0 | 0 | 2 | 2 | 0 | 0 | 2 | 0 | 0 | 0% | 0% | 
Cc1ccccc1N1C(=O)c2cc(S(N)(=O)=O)c(Cl)cc2NC1C (stereo not given) [METOLAZONE] |  | 0 |  |  | 0 | 0 | 8 days - 3 months | 0 | 0 | 2 | 0 | 0 | 1 | 0 | 1 | 1 | 0% | 0% | 
CCOC(=O)c1cncn1[C@H](C)c1ccccc1 [ETOMIDATE] | 0 | 0 | 0% | 5% | 0 | 0 | 3 days - 5 days | 0 | 0 | 0 | 1 | 0 | 0 | 0 | 0 |  |  |  | 
